# Patent US20220009976A1, “Peptide Possessing Mesenchymal-Stem-Cell Mobilizing Activity” (StemRIM Inc., priority 2018, published 2022)
# Key:
# mesenchymal stem cells [1] = assay: Solid-phase culture of peripheral blood after administration of HMGB1 peptide 1-44 (earlier experiments of the inventors); format: in vivo; conditions: vs peripheral blood after administration of physiological saline
# Description: In addition, the colonies obtained as a result of culturing, on a solid phase, peripheral blood after administration of a peptide consisting of amino acid residues 1-44 of the human HMGB1 protein (hereinafter, HMGB1 peptide 1-44), which has an activity of mobilizing mesenchymal stem cells into peripheral blood, have been confirmed to have adherability to solid phase and self-renewal ability, and to be PDGFRα positive. They have also been confirmed to have a gene expression profile characteristic to mesenchymal stem cells, based on the results of clustering the transcriptome analysis data and performing gene ontology analysis.
# Furthermore, it has been confirmed that the number of colonies obtained by solid-phase culture is larger in the peripheral blood after administration of HMGB1 peptide 1-44 than in the peripheral blood after administration of physiological saline.
# Therefore, the colonies obtained as a result of culturing peripheral blood on a solid phase are mesenchymal stem cells, and it is considered that an increase in the number of colonies detected in a solid phase culture of peripheral blood indicates an increase in the number of mesenchymal stem cells in the peripheral blood.
# [2] = system: atopic dermatitis model mice; assay: Efficacy in MC903-induced atopic dermatitis (AD) model mice; format: in vivo, C57BL/6 mice
# Description: MC903 (generic name: Calcipotriol) was used to induce atopic dermatitis (hereinafter, also referred to as “AD”) in mice. In addition, the peptide 1r10 (TFA salt) described in Example 1 was used as the test substance.
# C57BL/6 mice (C57BL/6JJcl, 7-8 weeks old, male, microbial grade SPF) were obtained from Japan Claire Co., Ltd., acclimated in the animal breeding room for 5 days or more, and then subjected to the following experiments. An ethanol-adjusted MC903 solution was applied to the skin of the auricle of the mice at a dose of 2.25 nmol MC903/ear/once/day five times a week for 2 weeks (ten times in total) to induce atopic dermatitis (AD). This MC903-induced AD model is a model in which AD-like pathology can be reproduced in a short period of time (1-2 weeks) by artificially inducing the secretion of TSLP from epithelial cells, which is actually seen in AD patients, thereby eliciting a series of type 2 immune response cascades (Li M et al., Proc Natl Acad Sci USA. 2006; 103:11736-41).
# They were then divided into the control group and the peptide administration group (n=7 in each group), while the groups were equalized based on the auricle thickness in consideration of the difference in the severity of inflammation between individuals. For peptide administration, the solution of peptide 1r10 adjusted to 0.3 mg/mL with physiological saline was injected into the tail vein at a volume of 5 mL/kg (peptide dose of 1.5 mg/kg) twice in total, once on the grouping day (Day 15) and once during the following 4 days (Day 16 to Day 19). For the control group a solution of bovine serum albumin (BSA) adjusted to 0.3 mg/mL with physiological saline was injected into the tail vein at a volume of 5 mL/kg (BSA dose of 1.5 mg/kg) twice in total, once on the grouping day (Day 15) and once during the following 4 days (Day 16 to Day 19).
# During the peptide administration period (Day 15 to Day 19), ear swellings were measured daily to determine edema. Scaling, which is the main symptom of AD, was determined by photography (three times a week) using a digital camera (E-M1 II; Olympus) from a fixed base at a height of 13-14 cm from the auricle.
# On the 4th day (Day 19) after the start of peptide administration, mice were placed under the influence of isoflurane anesthesia and euthanized with cervical spine dislocation. The skin at auricular inflammation site and its surroundings was quickly excised and collected while on ice to prevent protein denaturation of the sample. After removing excess hair and skin with tweezers, the collected auricular skin was immersed in 10% formalin and fixed at 4° C. overnight while shaking on ice using a shaker. After fixation, the skin was thoroughly washed with phosphate buffered saline (PBS) and trimmed, and then a paraffin block was made using an automatic embedding device (Excelsior ES; Thermo Scientific) with attention to the tissue polarity in the dorsoventral axis/left-right axis specific to the skin). Then, it was sliced (5 μm thick) with a rotary microtome (HM 325; Thermo Scientific), fixed on a slide glass, and subjected to various staining. As pathological analysis, skin thickness and infiltration of immune cells were evaluated by histochemical staining and fluorescent immunostaining, respectively.
# To quantitatively evaluate the healing condition of the site of inflammation, hematoxylin-eosin (HE) staining of the paraffin thin sections (5 μm thick) of skin tissue generated as described above was performed to measure the dermal thickness. Specifically, three sections were prepared for each individual, and each section was photographed with a microscope (Keyence BZ-X710) at one site each of the center of inflammation, head side, and tail side (that is, a total of 9 sites were photographed per individual). […]
# [3] = system: inflammatory bowel disease (IBD) model mice; assay: Efficacy in DSS-induced inflammatory bowel disease (IBD) model mice; format: in vivo, BALB/c mice
# Procedure: Dextran sodium sulfate (DSS) (molecular weight 36,000 to 50,000, manufactured by MP Biomedicals, Product No. 160110) was dissolved in purified water to prepare a 2.5% (w/v) DSS aqueous solution. In addition, the peptide 1r10 (TFA salt) described in Example 1 was used as the test substance.
# BALB/c mice (9 weeks old, male) were allowed to drink the 2.5% DSS aqueous solution freely for 7 days to induce colitis. After that, the drinking was changed from DSS to tap water, and the large intestine was collected 3 days later (10 days after the start of drinking the DSS aqueous solution).
# The IBD model mice prepared as described above were divided into the peptide 1r10 administration group (n=8) and the control group (n=8). Peptide administration was carried out by injecting into the tail vein, the peptide 1r10 solution adjusted to a concentration of 0.5 mg/mL using physiological saline as a solvent at an amount of 10 mL/kg on Days 1, 4, 7, 8 and 9 after the start of drinking the DSS aqueous solution (peptide dose of 5 mg/kg). The control group was injected with physiological saline solution at a dose of 10 mL/kg into the tail vein on Days 1, 4, 7, 8 and 9 after the start of drinking the DSS aqueous solution.
# For 10 days from the start of drinking the DSS aqueous solution, the mice were weighed and observed for the symptoms (stool condition and bleeding) every day except Saturdays, Sundays, and holidays, and the degree of symptoms was evaluated by calculating the DAI (disease activity index) score. The DAI score was calculated by scoring the weight loss rate, stool condition, and stool bleeding as shown in the table below, and summing the scores of these three items. The scoring criteria were partly based on the method of Li et al. (PLoS One. 2015 Dec. 7; 10 (12): e0144101).
# In addition, the length of the large intestine (from the colon to the rectum) collected 10 days after the start of drinking DSS was measured using a digital caliper.
# [4] = system: cerebral infarction model rat; assay: Efficacy in cerebral infarction model rat (right MCA occlusion); format: in vivo, Crl:CD (SD) rats; conditions: 2 mg/kg tail vein at 105 minutes and 24 hours after right MCA occlusion; 48 hours after occlusion; p<0.01 vs control 34.1±1.1%
# Description: Crl:CD (SD) rats (7 weeks old, male) were obtained from Charles River Laboratories, Japan, and after 6 days of acclimation, they were divided into the control group (n=8) and the peptide-administered group (n=8). On the following day of grouping, the rats were fixed in the supine position under 2% isoflurane inhalation anesthesia (anesthesia background: laughing gas:oxygen=7:3). To regulate body temperature during surgery, a thermometer probe connected to a digital thermometer was inserted into the rectum, and changes in the rectal temperature before and after surgery were monitored. […]
# Forty-eight hours after the right MCA occlusion, the animals were decapitated under anesthesia with sodium pentobarbital (50 mg/kg, intraperitoneal administration), and the entire brain was excised to prepare brain sections with a thickness of 2 mm. […] The resulting photographs were subjected to image analysis to obtain actual measurements of the cerebral infarction area and cross-sectional area of the brain, and the cerebral infarct volume and the total brain volume from 4 mm anterior to bregma to 6 mm posterior to bregma were calculated using the calculation formula below. In addition, the cerebral infarction volume ratio was calculated from the cerebral infarction volume and the total volume of the brain (cerebral infarction volume ratio (%)=cerebral infarction volume/total brain volume×100).
# mesenchymal stem cells [5] = assay: Colony assay of peripheral blood collected after peptide administration (mobilization of mesenchymal stem cells into peripheral blood); format: in vivo, C57BL/6J mice; conditions: 4 mg/kg tail vein; blood collected 14 hours after administration; 10 days culture; colonies of 50 or more cells; vs physiological saline
# Procedure: C57BL/6J mice (8 weeks old, male, body weight 25 g) were prepared and divided into a group administered with the artificial sequence peptide […] and a control group. The peptide was administered by injecting into the tail vein, a solution of peptide 1r10 adjusted to a concentration of […] using physiological saline as a solvent in an amount of 100 μL/animal (4 mg/kg dose of peptide). For the control group, physiological saline was injected into the tail vein in an amount of 100 μL/animal. […]
# The supernatant (sample containing peripheral blood-derived cells) obtained by the above procedure was seeded on collagen I-coated 6-well plates (Corning, Cat No. 356400), and cultured for 10 days under the conditions of 37° C., 5% CO2 and 5% O2, using a medium containing Expansion Medium prepared using the MesenCult Expansion Kit (STEMCELL Technologies, Cat No. ST-05513) according to the manual of the kit, 1% L-glutamine (Nacalai Tesque Inc.), 10 μM ROCK inhibitor (Y27632, Tocris Bioscience) and 1% penicillin/streptomycin (Nacalai Tesque Inc.) (all numerical values are final concentrations). […] On the 10th day of culture, cells on the plates were stained with a Differential Quik Stain Kit (Sysmex Corporation, Cat No. 16920), and the number of colonies containing 50 or more cells was counted. […]
# [6] = 5 mg/kg tail vein, 8 to 10 days after the start of drinking DSS, vs control group
Substance,number of colonies obtained by solid-phase culture of peripheral blood (mesenchymal stem cells [1]),"dermis thickness ([2]; 1.5 mg/kg tail vein twice, 4th day (Day 19) after start of administration, HE staining, vs control group)","scaling in the auricle ([2]; 1.5 mg/kg tail vein twice, 4 days after start of peptide administration, vs control group (BSA))","auricular thickness (edema) ([2]; 1.5 mg/kg tail vein twice, Day 15 to Day 19, vs control group (BSA))","number of CD45-positive cells in auricular skin sections ([2]; 1.5 mg/kg tail vein twice, Day 19, per high-power field (400×), vs control group)","changes in mouse body weight during the period of the study ([2]; Day 15 to Day 19, between the groups, p>0.05, repeated one-way ANOVA)","dermis thickness ([2]; dose of 0.5 mg/kg, vs control group, data not shown)","body weight 10 days after the start of drinking the DSS aqueous solution ([3]; 5 mg/kg tail vein on Days 1, 4, 7, 8 and 9, Day 10)","changes in mouse body weight (degree of decrease) ([3]; 5 mg/kg tail vein on Days 1, 4, 7, 8 and 9 after start of drinking DSS, vs control group (saline))","DAI (disease activity index) score [3, 6]","stool score (sum of stool condition score and bleeding score) [3, 6]","colon length ([3]; 5 mg/kg tail vein, ten days after the start of drinking DSS, vs control group)",cerebral infarction volume ratio (mean±standard error) [4] [%],number of colonies obtained on the plate by culturing the peripheral blood-derived cells (mesenchymal stem cells [5])
"HMGB1 peptide 1-44: peptide consisting of amino acid residues 1-44 of the human HMGB1 protein, which has an activity of mobilizing mesenchymal stem cells into peripheral blood (MGKGDPKKPRGKMSSYAFFVQTCREEHKKKHPDASVNFSEFSKK; UniProt P09429 1-44, looked up, fragment)",larger,–,–,–,–,–,–,–,–,–,–,–,–,–
"peptide 1r10: artificial sequence peptide consisting of the amino acid sequence of SEQ ID NO: 1, chemically synthesized (IMWLCQYFFQCHKCAVKKKTWKEKKDRRHP)",–,statistically significant decrease,reduction of scaling,statistically significant reduction,statistically significant decrease,not significantly different,statistically significant decrease,tendency to recover body weight,slower,lower,lower,longer,27.2±1.2,larger
